target: human 11β-HSD1 microsome fraction (Homo sapiens, UniProt P28845); assay: Enzymatic 11Beta-HSD1 test (SPA-based detection); format: biochemical; conditions: human 11β-HSD1 microsomes, [1,2-3H]-cortisone, NADPH, 37° C. 1 hour
Description: Enzymatic 11Beta-HSD1 Test:
To measure the activity of the compounds, an SPA-based detection method (Solly et al. 2005) was employed. First of all, 20 μl of the human 11β-HSD1 microsome fraction (0.2 μg of protein), prepared in 50 mM HEPES, 0.1% BSA (w/v), were applied to a plate with 384 wells. The test compounds (0.09 μl) were applied to the assay plate in 100% DMSO. The reaction was started by addition of 20 μl of [1,2-^3H]-cortisone (0.1 μCi/[…]) in assay buffer comprising 25 mM HEPES, 100 mM KCl, 5 mM NaCl, 2 mM MgCl2 and 0.25 mM NADPH. The plate was agitated at 37° C. for 1 hour. At the same time, a stop solution comprising 20 mg/ml SPA-PVT beads, 1.6 mg/ml monoclonal cortisol antibody and 0.01 mM SSR110887 (inhibitor from the Biovitrium patent) in 50 mM HEPES, 1 M NaCl and 1 M KCl was stirred at room temperature. To stop the reaction, 25 μl of the stop solution were added to each well. The plate was agitated gently at room temperature for 1 further hour and then centrifuged at 500 gav for 1 minute, in order that the SPA beads could settle out. The plate was then read in a Wallac-1450-Microbeta unit with a standard SPA program (counting time 1 min/well). The comparative compound was glycyrrhetinic acid.
Protein and radioactive substrate were dispensed with a Biomek FX unit (Beckman Coulter) for handling liquids. The test compounds were added with a Cybi-Well equipped with a 90 nl pin tool (CyBio).
Lit.: Solly S, Mundt S S, Zokian H J, Juy-Fang Ding G, Hermanowski-Vosatka A, Strulovici B and Zheng W. High-throughput screening of 11β-Hydroxysteroid dehydrogenase type 1 in scintillation proximity format. Assay Drug Dev Technol 2005; 3:377-384.

Sequence of human 11β-HSD1 microsome fraction (P28845 whole entry): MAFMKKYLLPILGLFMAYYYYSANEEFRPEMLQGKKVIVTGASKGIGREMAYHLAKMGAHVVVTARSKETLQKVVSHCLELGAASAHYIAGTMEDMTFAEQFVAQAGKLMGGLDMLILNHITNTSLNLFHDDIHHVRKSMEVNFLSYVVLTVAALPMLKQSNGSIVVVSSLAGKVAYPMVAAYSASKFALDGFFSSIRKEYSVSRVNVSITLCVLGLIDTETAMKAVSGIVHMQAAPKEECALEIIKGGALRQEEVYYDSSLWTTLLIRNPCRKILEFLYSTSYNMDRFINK

IC50 | Structure (SMILES)
24 nM | CC1(C)OC(NC23CC4CC(CC2C4)C3)=NS(=O)(=O)[C@H]1c1ccc(C2CCN(CCC(F)(F)F)CC2)cc1 [Example 2, ((S)-6,6-Dimethyl-4,4-dioxo-5-{4-[1-(3,3,3-trifluoropropyl)-piperidin-4-yl]phenyl}-5,6-dihydro-4H-4lambda6-[1,4,3]oxathiazin-2-yl)-(hexahydro-2,5-methanopentalen-3a-yl)amine]
34 nM | CC1(C)OC(NC23CC4CC2CC(C(N)=O)(C4)C3)=NS(=O)(=O)[C@@H]1c1ccc(-c2ccccc2)cc1 (stereo partly drawn) [Example 4, 3a-((R)-5-Biphenyl-4-yl-6,6-dimethyl-4,4-dioxo-5,6-dihydro-4H-4lambda6-[1,4,3]oxathiazin-2-ylamino)hexahydro-2,5-methane-pentalene-2-carboxamide]
22 nM | CC1(C)OC(NC23CC4CC2CC(C(N)=O)(C4)C3)=NS(=O)(=O)[C@@H]1c1ccc(Br)cc1 (stereo partly drawn) [Example 3, 3a-[(R)-5-(4-Bromophenyl)-6,6-dimethyl-4,4-dioxo-5,6-dihydro-4H-4lambda6-[1,4,3]oxathiazin-2-ylamino]hexahydro-2,5-methanopentalene-2-carboxamide]
14 nM | CC1(C)OC(NC23CC4CC(CC2C4)C3)=NS(=O)(=O)[C@H]1c1ccc(-c2cccc(C(=O)O)c2)cc1 [Example 1, 4′-[(S)-2-(Hexahydro-2,5-methanopentalen-3a-ylamino)-6,6-dimethyl-4,4-dioxo-5,6-dihydro-4H-4lambda6-[1,4,3]oxathiazin-5-yl]-biphenyl-3-carboxylic acid]

From patent publication US8809324B2, “Substituted phenyl-oxathiazine derivatives, method for producing them, drugs containing said compounds and the use thereof” (Sanofi, priority 2011, dated 2014)
